Consider 14 compounds from patent US9376425B2, “Heterocyclic compounds as MDM2 inhibitors for the treatment of cancer” (AMGEN INC., priority 2011, dated 2016).

The target of this assay is T1, human MDM2 (GST-hMDM2 1-188), interaction with biotinylated-p53 (1-83) (Homo sapiens, UniProt Q00987).
T1 construct: Amino acid residues 1-188 of human MDM2 were expressed; made in house; host or cells: Escherichia coli
T1 sequence (Q00987 1-188): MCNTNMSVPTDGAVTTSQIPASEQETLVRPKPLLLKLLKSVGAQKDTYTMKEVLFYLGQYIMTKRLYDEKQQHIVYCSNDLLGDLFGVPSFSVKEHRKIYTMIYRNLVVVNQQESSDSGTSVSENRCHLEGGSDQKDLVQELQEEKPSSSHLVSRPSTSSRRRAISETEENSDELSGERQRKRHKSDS
Briefly: improved HTRF assay (HTRF2 assay), inhibition of HDM2-p53 interaction. The note with it: 0.2 nM GST-hMDM2, 0.5 nM biotinylated-p53, 100 mM KF. It counts as binding. In outline:
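Time-resolved fluorescence (HTRF) read after >4 h equilibration with SA-XLent/anti-GST cryptate/KF detection reagents. Reaction: compound plus GST-hMDM2 for 20 min at room temperature, then E. coli-expressed biotinylated p53 residues 1-83 for 60 min, 2% DMSO final. Inhibition expressed versus nutlin-3.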
Regarding `CC[C@@H](CS(=O)(=O)C(C)(C)C)N1C(=O)[C@@H](CNC(=O)N(CC)CC)O[C@H](c2cccc(Cl)c2)[C@H]1c1ccc(Cl)cc1` (single isomer, unassigned) [Example 375, 3-(((2R,5R,6R)-4-((S)-1-(tert-Butylsulfonyl)butan-2-yl)-6-(3-chlorophenyl)-5-(4-chlorophenyl)-3-oxomorpholin-2-yl)methyl)-1,1-diethylurea or 3-(((2S,5R,6R)-4-((S)-1-(tert-butylsulfonyl)butan-2-yl)-6-(3-chlorophenyl)-5-(4-chlorophenyl)-3-oxomorpholin-2-yl)methyl)-1,1-diethylurea], the IC50 was 55 nM.

For the compound `CC[C@@H](CS(=O)(=O)C(C)(C)C)N1C(=O)[C@@H](CNC(=O)N(CC)CC)O[C@H](c2cccc(Cl)c2)[C@H]1c1ccc(Cl)cc1` (single isomer, unassigned) [Example 376, 3-(((2R,5R,6R)-4-((S)-1-(tert-Butylsulfonyl)butan-2-yl)-6-(3-chlorophenyl)-5-(4-chlorophenyl)-3-oxomorpholin-2-yl)methyl)-1,1-diethylurea or 3-(((2S,5R,6R)-4-((S)-1-(tert-butylsulfonyl)butan-2-yl)-6-(3-chlorophenyl)-5-(4-chlorophenyl)-3-oxomorpholin-2-yl)methyl)-1,1-diethylurea], the IC50 amounted to 48 nM.

Regarding `CC[C@@H](CS(=O)(=O)C(C)(C)C)N1C(=O)[C@@H](CNC(C)=O)O[C@H](c2cccc(Cl)c2)[C@H]1c1ccc(Cl)cc1` (single isomer, unassigned) [Example 379, N-(((2R,5R,6R)-4-((S)-1-(tert-Butylsulfonyl)butan-2-yl)-6-(3-chlorophenyl)-5-(4-chlorophenyl)-3-oxomorpholin-2-yl)methyl)acetamide or N-(42S,5R,6R)-4-((S)-1-(tert-butylsulfonyl)butan-2-yl)-6-(3-chlorophenyl)-5-(4-chlorophenyl)-3-oxomorpholin-2-yl)methyl)acetamide], the midpoint of inhibition, the IC50, lay at 82 nM.

`CC[C@@H](CS(=O)(=O)C(C)(C)C)N1C(=O)[C@@H](CNC(C)=O)O[C@H](c2cccc(Cl)c2)[C@H]1c1ccc(Cl)cc1` (single isomer, unassigned) [Example 380, N-(((2R,5R,6R)-4-((S)-1-(tert-Butylsulfonyl)butan-2-yl)-6-(3-chlorophenyl)-5-(4-chlorophenyl)-3-oxomorpholin-2-yl)methyl)acetamide or N-(((2S,5R,6R)-4-((S)-1-(tert-butylsulfonyl)butan-2-yl)-6-(3-chlorophenyl)-5-(4-chlorophenyl)-3-oxomorpholin-2-yl)methyl)acetamide] came in with an IC50 of 48 nM.

`CC(C)(C)S(=O)(=O)C[C@H](C1CC1)N1C(=O)[C@@H](Cc2cnn[nH]2)O[C@H](c2cccc(Cl)c2)[C@H]1c1ccc(Cl)cc1` (single isomer, unassigned) [Example 385, (2R,5R,6R)-2-((1H-1,2,3-Triazol-5-yl)methyl)-4-((S)-2-(tert-butylsulfonyl)-1-cyclopropylethyl)-6-(3-chlorophenyl)-5-(4-chlorophenyl)morpholin-3-one or (2S,5R,6R)-2-((1H-1,2,3-triazol-5-yl)methyl)-4-((S)-2-(tert-butylsulfonyl)-1-cyclopropylethyl)-6-(3-chlorophenyl)-5-(4-chlorophenyl)morpholin-3-one]: the IC50 came out at 4 nM.

As for `CC(C)(C)S(=O)(=O)C[C@H](C1CC1)N1C(=O)[C@@H](Cc2cnn[nH]2)O[C@H](c2cccc(Cl)c2)[C@H]1c1ccc(Cl)cc1` (single isomer, unassigned) [Example 386, (2R,5R,6R)-2-((1H-1,2,3-Triazol-5-yl)methyl)-4-((S)-2-(tert-butylsulfonyl)-1-cyclopropylethyl)-6-(3-chlorophenyl)-5-(4-chlorophenyl)morpholin-3-one or (2S,5R,6R)-2-((1H-1,2,3-triazol-5-yl)methyl)-4-((S)-2-(tert-butylsulfonyl)-1-cyclopropylethyl)-6-(3-chlorophenyl)-5-(4-chlorophenyl)morpholin-3-one], the IC50 was 13 nM.

As to `CC(C)(C)S(=O)(=O)C[C@H](C1CC1)N1C(=O)[C@@H](CC#N)O[C@H](c2cccc(Cl)c2)[C@H]1c1ccc(Cl)cc1` (single isomer, unassigned) [Example 387, 2-((2R,5R,6R)-4-((S)-2-(tert-Butylsulfonyl)-1-cyclopropylethyl)-6-(3-chlorophenyl)-5-(4-chlorophenyl)-3-oxomorpholin-2-yl)acetonitrile or 2-((2S,5R,6R)-4-((S)-2-(tert-butylsulfonyl)-1-cyclopropylethyl)-6-(3-chlorophenyl)-5-(4-chlorophenyl)-3-oxomorpholin-2-yl)acetonitrile], the IC50 was found to be 62 nM.

`CC(C)(C)S(=O)(=O)C[C@H](C1CC1)N1C(=O)[C@@H](CC#N)O[C@H](c2cccc(Cl)c2)[C@H]1c1ccc(Cl)cc1` (single isomer, unassigned) [Example 388, 2-((2R,5R,6R)-4-((S)-2-(tert-Butylsulfonyl)-1-cyclopropylethyl)-6-(3-chlorophenyl)-5-(4-chlorophenyl)-3-oxomorpholin-2-yl)acetonitrile or 2-((2S,5R,6R)-4-((S)-2-(tert-butylsulfonyl)-1-cyclopropylethyl)-6-(3-chlorophenyl)-5-(4-chlorophenyl)-3-oxomorpholin-2-yl)acetonitrile] displayed a half-inhibitory concentration (IC50) of 28 nM.

Consider `CC(C)(C)S(=O)(=O)C[C@H](C1CC1)N1C(=O)[C@@H](Cc2ncn[nH]2)O[C@H](c2cccc(Cl)c2)[C@H]1c1ccc(Cl)cc1` (single isomer, unassigned) [Example 389, (2R,5R,6R)-2-((1H-1,2,4-Triazol-5-yl)methyl)-4-((S)-2-(tert-butylsulfonyl)-1-cyclopropylethyl)-6-(3-chlorophenyl)-5-(4-chlorophenyl)morpholin-3-one or (2S,5R,6R)-2-((1H-1,2,4-triazol-5-yl)methyl)-4-((S)-2-(tert-butylsulfonyl)-1-cyclopropylethyl)-6-(3-chlorophenyl)-5-(4-chlorophenyl)morpholin-3-one], for which the IC50 turned out to be 19 nM.

The compound `CC(C)(C)S(=O)(=O)C[C@H](C1CC1)N1C(=O)[C@@H](Cc2ncn[nH]2)O[C@H](c2cccc(Cl)c2)[C@H]1c1ccc(Cl)cc1` (single isomer, unassigned) [Example 390, (2R,5R,6R)-2-((1H-1,2,4-Triazol-5-yl)methyl)-4-((S)-2-(tert-butylsulfonyl)-1-cyclopropylethyl)-6-(3-chlorophenyl)-5-(4-chlorophenyl)morpholin-3-one or (2S,5R,6R)-2-((1H-1,2,4-triazol-5-yl)methyl)-4-((S)-2-(tert-butylsulfonyl)-1-cyclopropylethyl)-6-(3-chlorophenyl)-5-(4-chlorophenyl)morpholin-3-one] came in with an IC50 of 11 nM.

In turn, `Cc1n[nH]c(C[C@H]2O[C@H](c3cccc(Cl)c3)[C@@H](c3ccc(Cl)cc3)N([C@H](CN(c3ccccc3F)S(=O)(=O)C3CC3)C3CC3)C2=O)n1` (single isomer, unassigned) [Example 392, N-((S)-2-((2R,3R,6R)-2-(3-Chlorophenyl)-3-(4-chlorophenyl)-6-((3-methyl-1H-1,2,4-triazol-5-yl)methyl)-5-oxomorpholino)-2-cyclopropylethyl)-N-(2-fluorophenyl)cyclopropanesulfonamide or N-((S)-2-((2S,3R,6R)-2-(3-chlorophenyl)-3-(4-chlorophenyl)-6-((3-methyl-1H-1,2,4-triazol-5-yl)methyl)-5-oxomorpholino)-2-cyclopropylethyl)-N-(2-fluorophenyl)cyclopropanesulfonamide] yielded a 50% inhibitory concentration (IC50) of under 1 nM.

Consider `Cc1n[nH]c(C[C@H]2O[C@H](c3cccc(Cl)c3)[C@@H](c3ccc(Cl)cc3)N([C@H](CN(c3ccccc3F)S(=O)(=O)C3CC3)C3CC3)C2=O)n1` (single isomer, unassigned) [Example 393, N-((S)-2-((2R,3R,6R)-2-(3-Chlorophenyl)-3-(4-chlorophenyl)-6-((3-methyl-1H-1,2,4-triazol-5-yl)methyl)-5-oxomorpholino)-2-cyclopropylethyl)-N-(2-fluorophenyl)cyclopropanesulfonamide or N-((S)-2-((2S,3R,6R)-2-(3-chlorophenyl)-3-(4-chlorophenyl)-6-((3-methyl-1H-1,2,4-triazol-5-yl)methyl)-5-oxomorpholino)-2-cyclopropylethyl)-N-(2-fluorophenyl)cyclopropanesulfonamide], for which the IC50 was under 1 nM.

In turn, `O=C1[C@@H](Cc2cnn[nH]2)O[C@H](c2cccc(Cl)c2)[C@@H](c2ccc(Cl)cc2)N1[C@H](CN(c1ccccc1F)S(=O)(=O)C1CC1)C1CC1` (single isomer, unassigned) [Example 394, N-((S)-2-((2R,5R,6R)-2-((1H-1,2,3-Triazol-5-yl)methyl)-6-(3-chlorophenyl)-5-(4-chlorophenyl)-3-oxomorpholino)-2-cyclopropylethyl)-N-(2-fluorophenyl)cyclopropanesulfonamide or N-((S)-2-((2S,5R,6R)-2-((1H-1,2,3-triazol-5-yl)methyl)-6-(3-chlorophenyl)-5-(4-chlorophenyl)-3-oxomorpholino)-2-cyclopropylethyl)-N-(2-fluorophenyl)cyclopropanesulfonamide] showed an IC50 of 1 nM.

Regarding `O=C1[C@@H](Cc2cnn[nH]2)O[C@H](c2cccc(Cl)c2)[C@@H](c2ccc(Cl)cc2)N1[C@H](CN(c1ccccc1F)S(=O)(=O)C1CC1)C1CC1` (single isomer, unassigned) [Example 395, N-((S)-2-((2R,5R,6R)-2-((1H-1,2,3-Triazol-5-yl)methyl)-6-(3-chlorophenyl)-5-(4-chlorophenyl)-3-oxomorpholino)-2-cyclopropylethyl)-N-(2-fluorophenyl)cyclopropanesulfonamide or N-((S)-2-((2S,5R,6R)-2-((1H-1,2,3-triazol-5-yl)methyl)-6-(3-chlorophenyl)-5-(4-chlorophenyl)-3-oxomorpholino)-2-cyclopropylethyl)-N-(2-fluorophenyl)cyclopropanesulfonamide], inhibition was half-maximal at 1 nM (IC50).
